Test results from paper doi:10.1101/2020.10.05.326645v1 (biorxiv, 2020).

What was measured:
HhTAR1 [1] = target: T1, HhTAR1 (Halyomorpha halys, UniProt A0A8A6C5M4); type: cell-based
T1 sequence (A0A8A6C5M4 1-448): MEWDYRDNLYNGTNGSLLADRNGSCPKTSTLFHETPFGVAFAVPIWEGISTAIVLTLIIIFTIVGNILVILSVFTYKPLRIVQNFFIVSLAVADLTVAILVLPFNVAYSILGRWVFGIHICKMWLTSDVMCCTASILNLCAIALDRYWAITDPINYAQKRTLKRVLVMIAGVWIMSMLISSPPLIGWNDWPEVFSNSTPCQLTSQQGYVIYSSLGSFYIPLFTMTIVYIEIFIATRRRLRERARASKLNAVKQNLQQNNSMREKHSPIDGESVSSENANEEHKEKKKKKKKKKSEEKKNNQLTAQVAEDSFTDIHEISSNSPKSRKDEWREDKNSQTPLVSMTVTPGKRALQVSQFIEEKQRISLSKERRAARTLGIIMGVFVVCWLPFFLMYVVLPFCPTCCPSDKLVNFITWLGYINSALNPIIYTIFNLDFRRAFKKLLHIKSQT

HhTAR1 [2] = target: T1, HhTAR1; assay: Fluo-4 calcium mobilization, FlexStation II, HEK […] cells; type: cell-based

Compound	Kb (HhTAR1 [1])	EC50 (HhTAR1 [2])
COC(=O)[C@@H]1[C@H]2C[C@H]3c4[nH]c5ccccc5c4CCN3C[C@@H]2CC[C@@H]1O [yohimbine]	5.5 nM	
NCCc1ccc(O)cc1 [tyramine]		1020 nM
